Like-named read-outs stand apart in the source and are kept apart here.
Key:
TGF Béta = details: publication of Lecanda and Gold, March 2009; cited from earlier work
p130 = assay: Fluorescence localization of p130 in nuclei during TPA treatment; type: cell-based, human; details: TPA 25 nM, after 12 h
Procedure: (§1) During this TPA treatment (25 nM), when E2F4, p130 and LIV21 were studied (green fluorescence) in the nuclei labelled (DNA) with propidium iodide (red fluorescence), the following were observed: […]

PKCzeta (PKCζ) = assay: Western blotting of PKCzeta expression (internal control) under TPA treatment; type: cell-based, human
Description: (§2) Western blotting study: Given that the protein sequence of LIV21 has putative PKCε phosphorylation sites, including two specific for PKCε, the inventor tested the variation in the expression of this PKC as a function of the duration of TPA treatment. […] The expression of PKCzeta (PKCζ) is used as an internal control since it is not sensitive to TPA.

LIV21 [1] = details: TPA-treated MCF-7 lines; cited from earlier work
PKCε = biological target: T1, PKCε (Homo sapiens, UniProt Q02156); assay: Western blotting of PKCε expression as a function of the duration of TPA treatment; type: cell-based; details: MCF-7 cells
T1 construct: endogenous in cells; host or cells: MCF-7
T1 sequence (Q02156 1-737): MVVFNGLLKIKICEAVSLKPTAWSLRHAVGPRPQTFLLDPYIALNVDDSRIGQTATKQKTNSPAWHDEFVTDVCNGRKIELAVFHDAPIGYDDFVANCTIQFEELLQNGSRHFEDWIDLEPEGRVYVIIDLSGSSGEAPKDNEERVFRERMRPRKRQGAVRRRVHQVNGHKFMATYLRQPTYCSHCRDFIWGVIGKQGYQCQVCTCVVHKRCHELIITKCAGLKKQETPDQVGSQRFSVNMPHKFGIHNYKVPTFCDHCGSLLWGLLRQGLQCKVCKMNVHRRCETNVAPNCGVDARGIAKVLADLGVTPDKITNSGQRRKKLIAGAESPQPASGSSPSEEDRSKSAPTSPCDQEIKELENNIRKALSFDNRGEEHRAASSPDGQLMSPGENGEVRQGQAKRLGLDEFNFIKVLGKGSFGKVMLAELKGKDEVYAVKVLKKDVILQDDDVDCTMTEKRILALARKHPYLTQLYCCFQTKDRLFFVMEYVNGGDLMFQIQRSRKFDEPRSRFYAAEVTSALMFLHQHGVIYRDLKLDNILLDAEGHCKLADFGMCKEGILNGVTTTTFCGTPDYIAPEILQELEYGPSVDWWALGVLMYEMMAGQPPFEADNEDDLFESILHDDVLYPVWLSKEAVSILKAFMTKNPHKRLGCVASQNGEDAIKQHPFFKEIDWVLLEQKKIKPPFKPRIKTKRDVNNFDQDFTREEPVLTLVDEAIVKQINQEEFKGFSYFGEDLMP
Description: as §2

E2F4 = assay: Fluorescence localization of E2F4 in nuclei during TPA treatment; type: cell-based, human; details: TPA 25 nM
Procedure: as §1

MCF-7 cells = details: background statement; cited from earlier work
estrogen receptors (ERs) = details: MCF-7 cells, background statement; cited from earlier work
MCF-7 line = details: cited from earlier work
cells of benign tumors = details: background statement; cited from earlier work
normal breast cells = details: background statement; cited from earlier work
protein kinases C (PKCs) = details: MCF-7 cells, background statement; cited from earlier work
LIV21 [2] = assay: Cell fractionation, LIV21 expression profile in cytoplasm and nuclear fraction; type: cell-based, human; details: cultures treated with peptide at 2 μM compared with TPA-treated cultures
Description: The study of the specific role of the PKC epsilon on the nuclear translocation of Liv 21F can use a peptide which inhibits function PKC epsilon and the translocation like previously described but also according to the protocol of reference of Si RNA of PKC epsilon. The profile of expression observed corresponds to a doublet of tapes in the cytoplasm with approximately 51 KD (and with a tape of 64 kD according to the siRNA used) whereas it corresponds only to one simple tape with 50 kD in the nuclear fraction.

LIV21 [3] = assay: Fluorescence localization of LIV21 in nuclei during TPA treatment; type: cell-based, human; details: TPA 25 nM, after 12 h
Procedure: as §1

LIV21 [4] = assay: Immunocytochemistry of the nuclear translocation of LIV21; type: cell-based, human; details: peptide 2 μM, 12 h, compared with TPA 25 nM
Description: To determine the specific action of PKCε on the translocation of LIV21, the crops were discussed with a peptide, selective antagonist of the function and translocation of this PKC (EAVSLKPT (SEQ ID No 6), and the results were compared with those obtained by processing with TP A. This peptide is recognized by the enzyme and links themselves as a substrate amended to the level of its catalytic site. Not phosphorylable, he acts as a specific inhibitor of the activity of PKCε.
The effect of the selective inhibition of the activity of PKCε on the nuclear translocation of LIV21 was studied by immunocytochemistry.

PKC = biological target: T2, PKC (Homo sapiens, UniProt Q02156); details: PKC-specific inhibitory peptide; cited from earlier work
T2 construct: endogenous in cells; host or cells: MCF-7
T2 sequence (Q02156 1-737): T1 sequence (Q02156 1-737)

| Compound | TGF Béta events (increase and nuclear accumulation of p27 via smad 2 and smad 3) (TGF Béta) | p130 localization (p130) | expression of PKCzeta (PKCζ) (PKCzeta (PKCζ)) | LIV21 localization (LIV21 [1]) | PKCε expression (PKCε) | E2F4 localization (E2F4; after 12 h) | E2F4 localization (E2F4; after 48 h) | E2F4 localization (E2F4; at 72 h) | migratory capacity of MCF-7 cells in vitro (MCF-7 cells) | expression and function of estrogen receptors (ERs) (estrogen receptors (ERs)) | cancerous proliferation (MCF-7 line; TPA-treated MCF-7 lines) | cell differentiation (MCF-7 line; TPA-treated MCF-7 lines) | proliferation of the cells of human mammary tumor lines such as the MCF-7 line (MCF-7 line; background statement) | proliferation of the cells of benign tumors (cells of benign tumors) | growth of normal breast cells (normal breast cells) | translocation of protein kinases C (PKCs) from the cytosol to the membranes (protein kinases C (PKCs)) | LIV21 expression profile (LIV21 [2]) | LIV21 localization (LIV21 [3]) | nuclear translocation of LIV21 (LIV21 [4]) | PKC activity versus expression (PKC) |
| --- | --- | --- | --- | --- | --- | --- | --- | --- | --- | --- | --- | --- | --- | --- | --- | --- | --- | --- | --- | --- |
| Fc1ccc(Cl)cc1-c1nc(Nc2ccncc2)c2nccnc2n1 [SD208] | All these events are locked |  |  |  |  |  |  |  |  |  |  |  |  |  |  |  |  |  |  |  |
| CCCCCCCCCCCCCC(=O)O[C@@H]1[C@@H](C)[C@@]2(O)[C@@H](C=C(CO)C[C@]3(O)C(=O)C(C)=C[C@@H]23)[C@H]2C(C)(C)[C@]12OC(C)=O [TPA, 12-0-tetradecanoyl phorbol-13-10 sumoate] |  | intranuclear green fluorescence signals | not sensitive | translocated into the nucleus | decreases from 30 min | intranuclear green fluorescence signals | comparable localization | disappears from the nucleus | increases the migratory capacity | greatly and rapidly inhibits | inhibition of cancerous proliferation | cell differentiation | drastically inhibits the proliferation | does not modify the proliferation | activates the growth | induces the time- and dose-dependent translocation | doublet in the cytoplasm and of a single band in the nuclear fraction | intranuclear green fluorescence signals |  |  |
| EAVSLKPT [PKC inhibiting peptide] |  |  |  |  |  |  |  |  |  |  |  |  |  |  |  |  | doublet in the cytoplasm and of a single band in the nuclear fraction |  | effect identical to that of TPA | it was the activity and not the expression of PKC which was inhibited |
